Results published in patent publication US12479840B2, “HMG-CoA reductase degradation inducing compound” (Uppthera, priority 2020, dated 2025).

Each compound was assayed against T1, HMG-CoA reductase (Homo sapiens, UniProt P04035) (assay: HMG-CoA reductase (HMGCR) degradation in HepG2 cells by western blotting). Conditions: treated for 18 hours, ratio of HMG-CoA reductase to GAPDH.
T1 construct: endogenous in cells; host or cells: HepG2 (Korea Cell Line Bank)
T1 sequence (P04035 1-888): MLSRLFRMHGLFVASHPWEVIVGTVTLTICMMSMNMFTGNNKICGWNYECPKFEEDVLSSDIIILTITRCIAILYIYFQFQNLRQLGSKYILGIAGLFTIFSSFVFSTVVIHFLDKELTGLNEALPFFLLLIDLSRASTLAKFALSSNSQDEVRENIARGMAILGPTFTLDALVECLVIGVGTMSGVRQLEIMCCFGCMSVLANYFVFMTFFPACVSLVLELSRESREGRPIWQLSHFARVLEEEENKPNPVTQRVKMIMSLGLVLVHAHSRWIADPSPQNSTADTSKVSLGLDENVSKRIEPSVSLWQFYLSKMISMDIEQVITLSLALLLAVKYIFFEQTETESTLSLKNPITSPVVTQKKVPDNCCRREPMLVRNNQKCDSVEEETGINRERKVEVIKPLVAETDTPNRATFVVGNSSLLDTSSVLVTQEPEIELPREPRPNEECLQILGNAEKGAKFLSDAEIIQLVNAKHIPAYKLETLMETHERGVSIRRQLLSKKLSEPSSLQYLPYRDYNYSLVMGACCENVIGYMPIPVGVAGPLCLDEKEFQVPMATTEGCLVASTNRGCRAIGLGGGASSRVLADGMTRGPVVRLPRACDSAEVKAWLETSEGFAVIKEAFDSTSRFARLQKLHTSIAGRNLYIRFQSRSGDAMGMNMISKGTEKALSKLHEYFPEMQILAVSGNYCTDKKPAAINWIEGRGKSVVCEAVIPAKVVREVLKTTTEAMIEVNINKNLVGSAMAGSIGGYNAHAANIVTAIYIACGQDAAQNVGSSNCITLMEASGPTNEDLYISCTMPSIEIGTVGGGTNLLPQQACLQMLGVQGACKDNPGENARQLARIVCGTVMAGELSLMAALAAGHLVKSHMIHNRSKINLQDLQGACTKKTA
Type: cell-based
In short: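 Western blot read-out: HMGCR protein probed (1:500, 16 hours at 4° C) alongside GAPDH loading control on 15 μg BCA-normalised RIPA lysates. Lysates came from HepG2 cells (P105–P110) exposed for 18 hours to a 10-point, three-fold series starting at 3 μM.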

Structure (SMILES)	DC50 [nM]
Cc1ncsc1-c1ccc(CNC(=O)[C@@H]2C[C@@H](O)CN2C(=O)[C@@H](NC(=O)C2(F)CC2)C(C)(C)C)c(OCCOCCOCCNC(=O)O[C@H]2C[C@@H](C)C=C3C=C[C@H](C)[C@H](CC[C@@H]4C[C@@H](O[Si](C)(C)C(C)(C)C)CC(=O)O4)[C@H]32)c1 [Compound 28, (1S,3R,7S,8S,8aR)-8-(2-((2R,4R)-4-((tert-butyldimethylsilyl)oxy)-6-oxotetrahydro-2H-pyran-2-yl)ethyl)-3,7-dimethyl-1,2,3,7,8,8a-hexahydronaphthalen-1-yl (2-(2-(2-(2-(((2S,4R)-1-((S)-2-(1-fluorocyclopropane-1-carboxamido)-3,3-dimethylbutanoyl)-4-hydroxypyrrolidine-2-carboxamido)methyl)-5-(4-methylthiazol-5-yl)phenoxy)ethoxy)ethoxy)ethyl)carbamate]	< 50
Cc1ncsc1-c1ccc(CNC(=O)[C@@H]2C[C@@H](O)CN2C(=O)[C@@H](NC(=O)C2(F)CC2)C(C)(C)C)c(OCCOCCOCCOCCNC(=O)O[C@H]2C[C@@H](C)C=C3C=C[C@H](C)[C@H](CC[C@@H]4C[C@@H](O[Si](C)(C)C(C)(C)C)CC(=O)O4)[C@H]32)c1 [Compound 29, (1S,3R,7S,8S,8aR)-8-(2-((2R,4R)-4-((tert-butyldimethylsilyl)oxy)-6-oxotetrahydro-2H-pyran-2-yl)ethyl)-3,7-dimethyl-1,2,3,7,8,8a-hexahydronaphthalen-1-yl (2-(2-(2-(2-(2-(((2S,4R)-1-((S)-2-(1-fluorocyclopropane-1-carboxamido)-3,3-dimethylbutanoyl)-4-hydroxypyrrolidine-2-carboxamido)methyl)-5-(4-methylthiazol-5-yl)phenoxy)ethoxy)ethoxy)ethoxy)ethyl)carbamate]	50 to 500
Cc1ncsc1-c1ccc(CNC(=O)[C@@H]2C[C@@H](O)CN2C(=O)[C@@H](NC(=O)C2(F)CC2)C(C)(C)C)c(OCCOCCOCCOCCOCCNC(=O)O[C@H]2C[C@@H](C)C=C3C=C[C@H](C)[C@H](CC[C@@H]4C[C@@H](O[Si](C)(C)C(C)(C)C)CC(=O)O4)[C@H]32)c1 [Compound 30, (1S,3R,7S,8S,8aR)-8-(2-((2R,4R)-4-((tert-butyldimethylsilyl)oxy)-6-oxotetrahydro-2H-pyran-2-yl)ethyl)-3,7-dimethyl-1,2,3,7,8,8a-hexahydronaphthalen-1-yl (14-(2-(((2S,4R)-1-((S)-2-(1-fluorocyclopropane-1-carboxamido)-3,3-dimethylbutanoyl)-4-hydroxypyrrolidine-2-carboxamido)methyl)-5-(4-methylthiazol-5-yl)phenoxy)-3,6,9,12-tetraoxatetradecyl)carbamate]	50 to 500

Same assay, conditions: treated for 18 hours, ratio of HMG-CoA reductase to GAPDH, read-out: DC50

Structure (SMILES)	DC50 [nM]
Cc1ncsc1-c1ccc(CNC(=O)[C@@H]2C[C@@H](O)CN2C(=O)[C@@H](NC(=O)C2(F)CC2)C(C)(C)C)c(OCCOCCNC(=O)O[C@H]2C[C@@H](C)C=C3C=C[C@H](C)[C@H](CC[C@@H]4C[C@@H](O[Si](C)(C)C(C)(C)C)CC(=O)O4)[C@H]32)c1 [Compound 27, (1S,3R,7S,8S,8aR)-8-(2-((2R,4R)-4-((tert-butyldimethylsilyl)oxy)-6-oxotetrahydro-2H-pyran-2-yl)ethyl)-3,7-dimethyl-1,2,3,7,8,8a-hexahydronaphthalen-1-yl (2-(2-(2-(((2S,4R)-1-((S)-2-(1-fluorocyclopropane-1-carboxamido)-3,3-dimethylbutanoyl)-4-hydroxypyrrolidine-2-carboxamido)methyl)-5-(4-methylthiazol-5-yl)phenoxy)ethoxy)ethyl)carbamate]	< 50
CN[C@@H](C)C(=O)N[C@H](C(=O)N1CCC[C@H]1c1nc(C(=O)c2cccc(OCCOCCOCCOCCNC(=O)O[C@H]3C[C@@H](C)C=C4C=C[C@H](C)[C@H](CC[C@@H]5C[C@@H](O)CC(=O)O5)[C@H]43)c2)cs1)C1CCCCC1 [Compound 32, (1S,3R,7S,8S,8aR)-8-(2-((2R,4R)-4-hydroxy-6-oxotetrahydro-2H-pyran-2-yl)ethyl)-3,7-dimethyl-1,2,3,7,8,8a-hexahydronaphthalen-1-yl (2-(2-(2-(2-(3-(2-((S)-1-((S)-2-cyclohexyl-2-((S)-2-(methylamino)propanamido)acetyl)pyrrolidin-2-yl)thiazole-4-carbonyl)phenoxy)ethoxy)ethoxy)ethoxy)ethyl)carbamate]	< 50
CN[C@@H](C)C(=O)N[C@H](C(=O)N1CCC[C@H]1c1nc(C(=O)c2cccc(OCCOCCOCCOCCOCCNC(=O)O[C@H]3C[C@@H](C)C=C4C=C[C@H](C)[C@H](CC[C@@H]5C[C@@H](O)CC(=O)O5)[C@H]43)c2)cs1)C1CCCCC1 [Compound 33, (1S,3R,7S,8S,8aR)-8-(2-((2R,4R)-4-hydroxy-6-oxotetrahydro-2H-pyran-2-yl)ethyl)-3,7-dimethyl-1,2,3,7,8,8a-hexahydronaphthalen-1-yl (14-(3-(2-((S)-1-((S)-2-cyclohexyl-2-((S)-2-(methylamino)propanamido)acetyl)pyrrolidin-2-yl)thiazole-4-carbonyl)phenoxy)-3,6,9,12-tetraoxatetradecyl)carbamate]	< 50

Results, then the compound that gave them:

DC50 [nM]	Structure (SMILES)
< 50	Cc1ncsc1-c1ccc(CNC(=O)[C@@H]2C[C@@H](O)CN2C(=O)[C@@H](NC(=O)C2(F)CC2)C(C)(C)C)c(OCCOCCOCCNC(=O)O[C@H]2C[C@@H](C)C=C3C=C[C@H](C)[C@H](CC[C@@H]4C[C@@H](O)CC(=O)O4)[C@H]32)c1 [Compound 24, (1S,3R,7S,8S,8aR)-8-(2-((2R,4R)-4-hydroxy-6-oxotetrahydro-2H-pyran-2-yl)ethyl)-3,7-dimethyl-1,2,3,7,8,8a-hexahydronaphthalen-1-yl (2-(2-(2-(2-(((2S,4R)-1-((S)-2-(1-fluorocyclopropane-1-carboxamido)-3,3-dimethylbutanoyl)-4-hydroxypyrrolidine-2-carboxamido)methyl)-5-(4-methylthiazol-5-yl)phenoxy)ethoxy)ethoxy)ethyl)carbamate]
< 50	Cc1ncsc1-c1ccc(CNC(=O)[C@@H]2C[C@@H](O)CN2C(=O)[C@@H](NC(=O)C2(F)CC2)C(C)(C)C)c(OCCOCCOCCOCCNC(=O)O[C@H]2C[C@@H](C)C=C3C=C[C@H](C)[C@H](CC[C@@H]4C[C@@H](O)CC(=O)O4)[C@H]32)c1 [Compound 25, (1S,3R,7S,8S,8aR)-8-(2-((2R,4R)-4-hydroxy-6-oxotetrahydro-2H-pyran-2-yl)ethyl)-3,7-dimethyl-1,2,3,7,8,8a-hexahydronaphthalen-1-yl (2-(2-(2-(2-(2-(((2S,4R)-1-((S)-2-(1-fluorocyclopropane-1-carboxamido)-3,3-dimethylbutanoyl)-4-hydroxypyrrolidine-2-carboxamido)methyl)-5-(4-methylthiazol-5-yl)phenoxy)ethoxy)ethoxy)ethoxy)ethyl)carbamate]
< 50	Cc1ncsc1-c1ccc(CNC(=O)[C@@H]2C[C@@H](O)CN2C(=O)[C@@H](NC(=O)C2(F)CC2)C(C)(C)C)c(OCCOCCOCCOCCOCCNC(=O)O[C@H]2C[C@@H](C)C=C3C=C[C@H](C)[C@H](CC[C@@H]4C[C@@H](O)CC(=O)O4)[C@H]32)c1 [Compound 26, (1S,3R,7S,8S,8aR)-8-(2-((2R,4R)-4-hydroxy-6-oxotetrahydro-2H-pyran-2-yl)ethyl)-3,7-dimethyl-1,2,3,7,8,8a-hexahydronaphthalen-1-yl (14-(2-(((2S,4R)-1-((S)-2-(1-fluorocyclopropane-1-carboxamido)-3,3-dimethylbutanoyl)-4-hydroxypyrrolidine-2-carboxamido)methyl)-5-(4-methylthiazol-5-yl)phenoxy)-3,6,9,12-tetraoxatetradecyl)carbamate]
< 50	CN[C@@H](C)C(=O)N[C@H](C(=O)N1CCC[C@H]1c1nc(C(=O)c2cccc(OCCOCCOCCNC(=O)O[C@H]3C[C@@H](C)C=C4C=C[C@H](C)[C@H](CC[C@@H]5C[C@@H](O)CC(=O)O5)[C@H]43)c2)cs1)C1CCCCC1 [Compound 31, (1S,3R,7S,8S,8aR)-8-(2-((2R,4R)-4-hydroxy-6-oxotetrahydro-2H-pyran-2-yl)ethyl)-3,7-dimethyl-1,2,3,7,8,8a-hexahydronaphthalen-1-yl (2-(2-(2-(3-(2-((S)-1-((S)-2-cyclohexyl-2-((S)-2-(methylamino)propanamido)acetyl)pyrrolidin-2-yl)thiazole-4-carbonyl)phenoxy)ethoxy)ethoxy)ethyl)carbamate]
